According to patent publication EP0178388A1, “Quinolinecarboxylic acid derivatives” (KYORIN PHARMACEUTICAL CO., LTD., priority 1984, dated 1986):
≈ marks a conversion by molar mass, not a printed value. Structures can show the parent of a compound that is named as a salt. Where two headings read alike, the source gives them in different places.

Columns and labels:
S. agalactiae 4468 = assay: In vitro antibacterial activity, MIC (clinical isolates); format: cell-based; settings: Streptococcus agalactiae; S. agalactiae 4468, 10^6 cells/ml, clinical isolate
P. morganii IID 602 = assay: In vitro antibacterial activity, MIC (standard strain); format: cell-based; settings: Morganella morganii, IID602; P. morganii IID 602, 10^6 cells/ml, standard strain; read-out: MIC
S. pyogenes 3107 = assay: In vitro antibacterial activity, MIC (clinical isolates); format: cell-based; settings: Streptococcus pyogenes; S. pyogenes 3107, 10^6 cells/ml, clinical isolate
S. pyogenes IID 692 = assay: In vitro antibacterial activity, MIC (standard strain); format: cell-based; settings: Streptococcus pyogenes, IID692, S. pyogenes IID 692, 10^6 cells/ml
[1] = system: Salmonella enteritidis IID 604; assay: as above; format: cell-based; settings: Salmonella enterica; Salmonella enteritidis IID 604, 10^6 cells/ml, standard strain; read-out: MIC
[2] = system: Veillonella parvula KYA 10790; assay: as above; format: cell-based; settings: KYA10790, Veillonella parvula KYA 10790, 10^6 cells/ml
S. faecalis 214 = assay: In vitro antibacterial activity, MIC (clinical isolates); format: cell-based; settings: Enterococcus faecalis; S. faecalis 214, 10^6 cells/ml, clinical isolate
S. faecalis 401 = assay: as above; format: cell-based; settings: Enterococcus faecalis; S. faecalis 401, 10^6 cells/ml, clinical isolate
Shigella sonnei IID 969 = assay: In vitro antibacterial activity, MIC (standard strain); format: cell-based; settings: IID969, Shigella sonnei IID 969, 10^6 cells/ml
Description: (§1) The in vitro antibacterial activity has been investigated, the minimun inhibitory concentration (MIC) was determined in accordance with the method recommended by Japan Society of Chemotherapy.

E. coli ATCC 10536 = assay: as above; format: cell-based; settings: Escherichia coli, ATCC10536
S. faecalis 49 = assay: In vitro antibacterial activity, MIC (clinical isolates); format: cell-based; settings: Enterococcus faecalis; S. faecalis 49, 10^6 cells/ml, clinical isolate
B. distasonis 8503 = assay: In vitro antibacterial activity, MIC (standard strain); format: cell-based; settings: Parabacteroides distasonis, B. distasonis 8503, 10^6 cells/ml
[3] = system: Streptococcus pyogenes S-8; assay: as above; format: cell-based; settings: S8, Streptococcus pyogenes S-8, 10^6 cells/ml
S. pyogenes 3102 = assay: In vitro antibacterial activity, MIC (clinical isolates); format: cell-based; settings: Streptococcus pyogenes; S. pyogenes 3102, 10^6 cells/ml, clinical isolate
[4] = system: C. perfringens KYA (ATCC) 13123; assay: microbe, parasite or virus in culture; format: cell-based; settings: Clostridium perfringens
P. mirabilis IID 994 = assay: In vitro antibacterial activity, MIC (standard strain); format: cell-based; settings: Proteus mirabilis, IID994, P. mirabilis IID 994, 10^6 cells/ml
S. pyogenes 3130 = assay: In vitro antibacterial activity, MIC (clinical isolates); format: cell-based; settings: Streptococcus pyogenes; S. pyogenes 3130, 10^6 cells/ml, clinical isolate
E. coli ML4707 [5] = assay: In vivo antibacterial activity against systemic infection in mice; settings: Escherichia coli, ML4707, po, 1 h, E. coli ML4707, mice (ICR-S), intraperitoneal infection, oral at 1 hour after infection, read-out: ED50
Description: (§2) Experiment 2 In vivo antibacterial activity against systemic infection in mice (ICR-S)
(§3) The infections were produced by intraperitoneal infection of a suspension of the bacterial culture corresponding to the germ studied. The product was administered orally at 1 hour after the infection. The 50% effective dose (ED50) which protects 50% of the animals from death caused by the infection was determined from the relation between dosage and survival rate.

S. pyogenes 4340 = assay: In vitro antibacterial activity, MIC (clinical isolates); format: cell-based; settings: Streptococcus pyogenes; S. pyogenes 4340, 10^6 cells/ml, clinical isolate
E. coli ML4707 [6] = assay: MIC against the infecting strain (Table 2); format: cell-based; settings: Escherichia coli; E. coli ML4707 (Table 2, parts 1 and 2)
Description: as §1

B. fragilis 0558 = assay: In vitro antibacterial activity, MIC (standard strain); format: cell-based; settings: Bacteroides fragilis; B. fragilis 0558, 10^6 cells/ml, standard strain; read-out: MIC
S. agalactiae 4368 = assay: In vitro antibacterial activity, MIC (clinical isolates); format: cell-based; settings: Streptococcus agalactiae; S. agalactiae 4368, 10^6 cells/ml, clinical isolate
S. pneumoniae 2054 = assay: as above; format: cell-based; settings: Streptococcus pneumoniae; S. pneumoniae 2054, 10^6 cells/ml, clinical isolate
P. aeruginosa IID 1210 = assay: In vivo antibacterial activity against systemic infection in mice; set-up: species or system mice (ICR-S); settings: Pseudomonas aeruginosa, IID1210; P. aeruginosa IID 1210, mice (ICR-S), intraperitoneal infection, oral at 1 hour after infection, challenge dose 2.5 x 10^5 cfu/mouse; read-out: ED50
Description: as §2, §3

S. aureus Smith [7] = assay: as above; set-up: species or system mice (ICR-S); settings: Staphylococcus aureus; S. aureus Smith, mice (ICR-S), intraperitoneal infection, oral at 1 hour after infection, challenge dose 3.5 x 10^5 cfu/mouse; read-out: ED50
Description: as §2, §3

[8] = system: Fusobacterium necrophorum S-45; assay: In vitro antibacterial activity, MIC (standard strain); format: cell-based; settings: S45, Fusobacterium necrophorum S-45, 10^6 cells/ml
[9] = system: Peptococcus magnus KY 017; assay: as above; format: cell-based; settings: Finegoldia magna, KY017, Peptococcus magnus KY 017, 10^6 cells/ml
S. aureus Smith [10] = assay: MIC against the infecting strain (Table 2); format: cell-based; settings: Staphylococcus aureus; S. aureus Smith (Table 2, part 5)
[11] = system: Eubacterium lentum GAI 5242; assay: In vitro antibacterial activity, MIC (standard strain); format: cell-based; settings: Eggerthella lenta, GAI5242, Eubacterium lentum GAI 5242, 10^6 cells/ml
C. ramosum = assay: as above; format: cell-based; settings: Thomasclavelia ramosa; C. ramosum, 10^6 cells/ml, standard strain; read-out: MIC
[12] = challenge dose 8.3 x 10^6 cfu/mouse (part 2)

SMILES	MIC (S. agalactiae 4468) [µg/mL]	MIC (P. morganii IID 602) [µg/mL]	MIC (S. pyogenes 3107) [µg/mL]	MIC (S. pyogenes IID 692) [µg/mL]	MIC [1] [µg/mL]	MIC [2] [µg/mL]	MIC (S. faecalis 214) [µg/mL]	MIC (S. faecalis 401) [µg/mL]	MIC (Shigella sonnei IID 969) [µg/mL]	MIC (S. faecalis 49) [µg/mL]	MIC [3] [µg/mL]	MIC (S. pyogenes 3102) [µg/mL]	MIC [4] [µg/mL]	MIC (P. mirabilis IID 994) [µg/mL]	MIC (S. pyogenes 3130) [µg/mL]	ED50 (E. coli ML4707 [5]; [12]) [mg/kg]	MIC (S. pyogenes 4340) [µg/mL]	MIC (E. coli ML4707 [6]) [µg/mL]	MIC (B. fragilis 0558) [µg/mL]	MIC (S. agalactiae 4368) [µg/mL]	further results
CC1CN(c2c(F)cc3c(=O)c(C(=O)O)cn(C4CC4)c3c2F)CCN1 (stereo not drawn) [Example 2, l-Cyclopropyl-6,8-difluoro-l,4-dihydro-7-(3-methyl-l-piperazinyl)-4-oxoquinoline-3-carboxylic acid]	0.78 (≈ 2.15 µM)	0.05 (≈ 0.138 µM)	0.78 (≈ 2.15 µM)	0.78 (≈ 2.15 µM)	0.025 (≈ 0.0688 µM)	0.2 (≈ 0.55 µM)	0.78 (≈ 2.15 µM)	1.56 (≈ 4.29 µM)	0.0125 (≈ 0.0344 µM)	0.78 (≈ 2.15 µM)	0.78 (≈ 2.15 µM)	0.78 (≈ 2.15 µM)	0.78 (≈ 2.15 µM)	0.025 (≈ 0.0688 µM)	0.78 (≈ 2.15 µM)	0.17	0.78 (≈ 2.15 µM)	0.0125 (≈ 0.0344 µM)	0.78 (≈ 2.15 µM)	0.78 (≈ 2.15 µM)	MIC (E. coli ATCC 10536; E. coli ATCC 10536, 10^6 cells/ml, standard strain, read-out: MIC): ≤ 0.006 µg/mL; MIC (B. distasonis 8503): 1.56 µg/mL (≈ 4.29 µM); ED50 (E. coli ML4707 [5]; challenge dose 6.0 x 10^6 cfu/mouse (part 1)): 0.09 mg/kg; MIC (S. pneumoniae 2054): 1.56 µg/mL (≈ 4.29 µM)
CC1CN(c2c(F)cc3c(=O)c(C(=O)O)cn(C4CC4)c3c2Cl)CCN1 (stereo not drawn) [Example 5, 8-Chloro-l-cyclopropyl-6-fluoro-1,4-dihydro-7-(3-methyl-1-piperazinyl)-4-oxoquinoline-3-carboxylic acid hydrochloride]	0.39	0.1	0.39	0.78	0.025	0.2	0.78	0.78	0.0125	0.78	0.39	0.39	0.78	0.025	0.39	0.12	0.39	0.0125	0.2	0.39	ED50 (P. aeruginosa IID 1210): 3.2 mg/kg; ED50 (S. aureus Smith [7]): 0.89 mg/kg; MIC [8]: 0.39 µg/mL; MIC (E. coli ATCC 10536): 0.0125 µg/mL; MIC [9]: 0.1 µg/mL; MIC (S. aureus Smith [10]): 0.1 µg/mL; MIC [11]: 0.39 µg/mL; MIC (C. ramosum): 3.13 µg/mL; MIC (S. pneumoniae 2054): 0.78 µg/mL
